Data from the supplement of paper PMC10307832.

Key:
Assay in all cases: relative viability (nuclei count vs DMSO), 5 days (fraction); higher = more cells survive
[1] = compound: CC1=CC(=CC=C1)NC2=NC(=CS2)C3=CC=NC=C3 + CC(C)C[C@H](NC(=O)[C@H](Cc1ccccc1)NC(=O)c1cnccn1)B(O)O [Bortezomib] (partner 0.002 µM)
Summary of the method: (§1)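 Medians of duplicate plates are given as relative viability. That measure is the nuclei count in treated wells divided by the count in vehicle wells. Counts were taken on 4× images of lung cancer cell lines in 1536-well plates, 5 days after pin-tool dosing the day after seeding with one drug alone or a fixed anchor-drug dose plus five library-drug doses (not always all listed) in √10 steps.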

[2] = compound: CC1=CC(=CC=C1)NC2=NC(=CS2)C3=CC=NC=C3 + O=C(CCCCCCC(=O)Nc1ccccc1)NO [Vorinostat] (partner 1 µM)
Summary of the method: as §1

Masitinib + Phenformin = compound: Cc1ccc(NC(=O)c2ccc(CN3CCN(C)CC3)cc2)cc1Nc1nc(-c2cccnc2)cs1 [Masitinib] + N=C(N)NC(=N)NCCc1ccccc1 [Phenformin] (partner 250 µM)
Summary of the method: as §1

Masitinib + AZD7762 = compound: Cc1ccc(NC(=O)c2ccc(CN3CCN(C)CC3)cc2)cc1Nc1nc(-c2cccnc2)cs1 [Masitinib] + NC(=O)Nc1cc(-c2cccc(F)c2)sc1C(=O)N[C@H]1CCCNC1 [AZD7762] (partner 0.2 µM)
Summary of the method: as §1

Row | Cell Line | relative viability ([1]; first compound 0.08 µM) | relative viability ([1]; first compound 0.253 µM) | relative viability ([1]; first compound 0.8 µM) | relative viability ([1]; first compound 2.53 µM) | relative viability ([1]; first compound 8 µM) | relative viability ([2]; first compound 0.08 µM) | relative viability ([2]; first compound 0.253 µM) | relative viability ([2]; first compound 0.8 µM) | relative viability ([2]; first compound 2.53 µM) | relative viability ([2]; first compound 8 µM) | relative viability (Masitinib + Phenformin; first compound 0.01 µM) | relative viability (Masitinib + Phenformin; first compound 0.03162 µM) | relative viability (Masitinib + Phenformin; first compound 0.1 µM) | relative viability (Masitinib + Phenformin; first compound 0.3162 µM) | relative viability (Masitinib + Phenformin; first compound 1 µM) | relative viability (Masitinib + AZD7762; first compound 0.01 µM) | relative viability (Masitinib + AZD7762; first compound 0.03162 µM) | relative viability (Masitinib + AZD7762; first compound 0.1 µM) | relative viability (Masitinib + AZD7762; first compound 0.3162 µM) | relative viability (Masitinib + AZD7762; first compound 1 µM)
1 | LC-2-ad | 0.884 | 0.94 | 1.13 | 0.873 | 0.875 | 0.607 | 0.647 | 0.688 | 0.624 | 0.658 | 0.517 | 0.573 | 0.622 | 0.627 | 0.557 | 0.687 | 0.795 | 0.707 | 0.71 | 0.818
2 | ChaGo-K-1 | 0.866 | 0.775 | 1.06 | 0.579 | 0.812 | 0.681 | 0.735 | 0.734 | 0.777 | 0.777 | 0.509 | 0.455 | 0.511 | 0.467 | 0.411 | 0.928 | 0.916 | 0.946 | 0.823 | 0.806
3 | NCI-H1993 | 1 | 1.03 | 0.885 | 0.894 | 0.993 | 0.691 | 0.649 | 0.726 | 0.819 | 0.726 | 0.5 | 0.469 | 0.603 | 0.523 | 0.451 | 0.786 | 0.625 | 0.753 | 0.745 | 0.684
4 | NCI-H2347 | 0.748 | 0.74 | 0.847 | 0.804 | 0.57 | 0.512 | 0.671 | 0.411 | 0.657 | 0.501 | 0.391 | 0.402 | 0.333 | 0.374 | 0.327 | 0.853 | 0.733 | 0.675 | 0.647 | 0.73
5 | HCC-366 | 0.875 | 1.04 | 0.998 | 1.06 | 0.985 | 0.248 | 0.172 | 0.255 | 0.186 | 0.198 | – | 0.59 | – | 0.572 | 0.575 | – | 0.226 | 0.256 | 0.203 | 0.188
6 | EMC-BAC-2 | 0.982 | 1.04 | 1.01 | 0.99 | 0.927 | 0.367 | – | 0.579 | 0.343 | 0.425 | 0.485 | 0.494 | 0.524 | 0.53 | 0.457 | 0.862 | 1.01 | 1.03 | 1.05 | 1.01
7 | NCI-H3122 | 1.03 | 1.07 | 1.06 | 0.996 | 1.03 | 0.912 | 0.709 | 1.05 | 1.03 | 0.961 | – | 0.396 | – | 0.315 | 0.312 | 0.797 | 0.994 | 0.993 | 0.921 | 0.984
8 | EPLC-272H | 1.03 | – | 0.73 | – | 0.352 | 0.483 | 0.353 | 0.465 | 0.292 | 0.639 | 0.317 | 0.212 | 0.285 | 0.305 | 0.257 | 0.245 | 0.206 | 0.211 | 0.258 | 0.161
